Source: patent publication US10800792B2, “Inhibitors of Bruton's tyrosine kinase and method of their use” (JANSSEN PHARMACEUTICA NV, priority 2015, dated 2020)

These molecules were tested against unphosphorylated-BTK kinase domain (UP-BTK), GST-tagged human BTK (389-659aa) (Homo sapiens (Human), UniProt Q06187) (assay: BTK kinase Lanthascreen binding assay). Conditions: Lanthascreen tracer competition, 60 minutes incubation; pIC50 = negative log of the IC50 in molar.
How it was run: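 Lanthascreen competition binding; test compound vs fluorescent tracer on unphosphorylated BTK. Output: pIC50 (−log IC50, M).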

Chain of unphosphorylated-BTK kinase domain (UP-BTK), GST-tagged human BTK (389-659aa) (Q06187 389-659): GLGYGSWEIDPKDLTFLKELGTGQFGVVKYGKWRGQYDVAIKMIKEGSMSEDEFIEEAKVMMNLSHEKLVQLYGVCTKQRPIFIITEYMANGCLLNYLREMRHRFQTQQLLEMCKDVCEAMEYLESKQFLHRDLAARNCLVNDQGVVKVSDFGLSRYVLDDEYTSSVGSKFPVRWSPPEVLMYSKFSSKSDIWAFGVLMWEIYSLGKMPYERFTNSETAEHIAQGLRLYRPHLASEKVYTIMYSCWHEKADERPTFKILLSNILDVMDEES

Compound	BTK_I_binding pIC50
Cc1ccccc1N1C(=O)Nc2c(C(=O)NC3CCCN(C(=O)/C(C#N)=C/C4CC4)C3)sc3nccc1c23 (centres unmarked) [Example 886, (E)-N-(1-(2-Cyano-3-cyclopropylacryloyl)piperidin-3-yl)-4-oxo-5-(o-tolyl)-4,5-dihydro-3H-1-thia-3,5,8-triazaacenaphthylene-2-carboxamide]	7.0
CCC(=O)N1CCC[C@@H](NC(=O)c2sc3nccc4c3c2NC(=O)N4c2ccc(Oc3ccccn3)cc2)C1 [Example 807, (R)-4-Oxo-N-(1-propionylpiperidin-3-yl)-5-(4-(pyridin-2-yloxy)phenyl)-4,5-dihydro-3H-1-thia-3,5,8-triazaacenaphthylene-2-carboxamide]	<6
C=CC(=O)N1C[C@@H](O)C[C@@H](NC(=O)c2sc3nccc4c3c2NC(=O)N4c2cccc(-c3cccc(F)c3F)c2)C1 [Example 674, N-((3R,5S)-1-Acryloyl-5-hydroxypiperidin-3-yl)-5-(2′,3′-difluoro-[1,1′-biphenyl]-3-yl)-4-oxo-4,5-dihydro-3H-1-thia-3,5,8-triazaacenaphthylene-2-carboxamide]	8.2
C=CC(=O)N1CCC[C@@H](NC(=O)c2sc3nccc4c3c2NC(=O)N4c2ccc(Oc3ccccn3)cc2C)C1 [Example 778, (R)—N-(1-Acryloylpiperidin-3-yl)-5-(2-methyl-4-(pyridin-2-yloxy)phenyl)-4-oxo-4,5-dihydro-3H-1-thia-3,5,8-triazaacenaphthylene-2-carboxamide]	8.0

Same assay, conditions: pIC50 = negative log of the IC50 in molar; 60 minutes incubation, 50 nM Tracer 236

Compound	BTK_I_binding pIC50
C=C(F)C(=O)N1CCC[C@@H](NC(=O)c2sc3nccc4c3c2NC(=O)N4c2ccc(Oc3ccccc3)cc2C)C1 [Example 48, (R)—N-(1-(2-Fluoroacryloyl)piperidin-3-yl)-5-(2-methyl-4-phenoxyphenyl)-4-oxo-4,5-dihydro-3H-1-thia-3,5,8-triazaacenaphthylene-2-carboxamide]	6.9
C/C=C(\Cl)C(=O)N1CCC[C@@H](NC(=O)c2sc3nccc4c3c2NC(=O)N4c2ccc(Oc3ccccc3)cc2C)C1 [Example 277, (R,Z)—N-(1-(2-Chlorobut-2-enoyl)piperidin-3-yl)-5-(2-methyl-4-phenoxyphenyl)-4-oxo-4,5-dihydro-3H-1-thia-3,5,8-triazaacenaphthylene-2-carboxamide]	6.2
Cc1cc(Oc2ccccc2)ccc1N1C(=O)Nc2c(C(=O)N[C@@H]3CCCN(C(C)C)C3)sc3nccc1c23 [Example 101, (R)—N-(1-Isopropylpiperidin-3-yl)-5-(2-methyl-4-phenoxyphenyl)-4-oxo-4,5-dihydro-3H-1-thia-3,5,8-triazaacenaphthylene-2-carboxamide]	6.8
CCc1ccccc1Oc1ccc(N2C(=O)Nc3c(C(=O)N[C@@H]4CCCN(C(=O)/C(C#N)=C/C5CC5)C4)sc4nccc2c34)c(C)c1 [Example 76, (R,E)-N-(1-(2-Cyano-3-cyclopropylacryloyl)piperidin-3-yl)-5-(4-(2-ethylphenoxy)-2-methylphenyl)-4-oxo-4,5-dihydro-3H-1-thia-3,5,8-triazaacenaphthylene-2-carboxamide]	6.8
Cc1cc(Oc2ccccc2)ccc1N1C(=O)Nc2c(C(=O)NC3CCNCC3C)sc3nccc1c23 (centres unmarked) [Example 172, 5-(2-Methyl-4-phenoxyphenyl)-N-(3-methylpiperidin-4-yl)-4-oxo-4,5-dihydro-3H-1-thia-3,5,8-triazaacenaphthylene-2-carboxamide]	6.7
Cc1cc(Oc2ccccc2)ccc1N1C(=O)Nc2c(C(=O)NCCN3CCOCC3)sc3nccc1c23 [Example 275, 5-(2-Methyl-4-phenoxyphenyl)-N-(2-morpholinoethyl)-4-oxo-4,5-dihydro-3H-1-thia-3,5,8-triazaacenaphthylene-2-carboxamide]	6.3
Cc1cc(Oc2ccccc2)ccc1N1C(=O)Nc2c(C(=O)N[C@@H]3CCN(C(=O)CCS(C)(=O)=O)C3)sc3nccc1c23 [Example 104, (R)-5-(2-Methyl-4-phenoxyphenyl)-N-(1-(3-(methylsulfonyl)propanoyl)pyrrolidin-3-yl)-4-oxo-4,5-dihydro-3H-1-thia-3,5,8-triazaacenaphthylene-2-carboxamide]	7.7
Cc1cc(Oc2ccccc2)ccc1N1C(=O)Nc2c(C(=O)N[C@H]3CNC[C@H]3O)sc3nccc1c23 [Example 241, N-((3S,4R)-4-hydroxypyrrolidin-3-yl)-5-(2-methyl-4-phenoxyphenyl)-4-oxo-4,5-dihydro-3H-1-thia-3,5,8-triazaacenaphthylene-2-carboxamide]	6.7

Same assay, conditions: pIC50 = negative log of the IC50 in molar; 60 minutes incubation, 50 nM Tracer 236; read-out: BTK_I_binding pIC50 (converted)

Compound	IC50 [nM]
C=CC(=O)N1C[C@H](F)C[C@@H](NC(=O)c2sc3nccc4c3c2NC(=O)N4c2ccc(Oc3ccccc3)cc2C)C1 [Example 1, N-((3R,5R)-1-Acryloyl-5-fluoropiperidin-3-yl)-5-(2-methyl-4-phenoxyphenyl)-4-oxo-4,5-dihydro-3H-1-thia-3,5,8-triazaacenaphthylene-2-carboxamide]	20
C=CC(=O)N1CCC[C@@H](NC(=O)c2sc3nccc4c3c2NC(=O)N4c2ccc(Oc3ccccc3CC)cc2C)C1 [Example 19, (R)—N-(1-Acryloylpiperidin-3-yl)-5-(4-(2-ethylphenoxy)-2-methylphenyl)-4-oxo-4,5-dihydro-3H-1-thia-3,5,8-triazaacenaphthylene-2-carboxamide]	63.1

Same assay, conditions: unphosphorylated-BTK kinase domain, 50 nM Tracer 236, 60 minutes; pIC50 = negative log of the IC50 in molar

Compound	BTK_I_binding pIC50
C/C=C\C(=O)N1CCC[C@@H](NC(=O)c2sc3nccc4c3c2NC(=O)N4c2ccc(Oc3ccccc3)cc2C)C1 (single isomer, unassigned) [Example 475, (R,*Z)—N-(1-(But-2-enoyl)piperidin-3-yl)-5-(*R)-(2-methyl-4-phenoxyphenyl)-4-oxo-4,5-dihydro-3H-1-thia-3,5,8-triazaacenaphthylene-2-carboxamide]	6.1
O=C(N[C@@H]1CCNC1)c1sc2nccc3c2c1NC(=O)N3c1ccc(Oc2ccccc2)c(Cl)c1 [Example 577, (R)-5-(3-Chloro-4-phenoxyphenyl)-4-oxo-N-(pyrrolidin-3-yl)-4,5-dihydro-3H-1-thia-3,5,8-triazaacenaphthylene-2-carboxamide]	7.2
Cc1cc(Oc2ccccc2)ccc1N1C(=O)Nc2c(C(=O)N[C@@H]3CCN(C)C3)sc3nccc1c23 (single isomer, unassigned) [Example 493, (R)-5-(*S)-(2-Methyl-4-phenoxyphenyl)-N-(1-methylpyrrolidin-3-yl)-4-oxo-4,5-dihydro-3H-1-thia-3,5,8-triazaacenaphthylene-2-carboxamide]	6.9

Same assay, conditions: unphosphorylated-BTK kinase domain, 60 minutes incubation, 50 nM Tracer 236; pIC50 = negative log of the IC50 in molar

Compound	BTK_I_binding pIC50
Cc1ccc(N2C(=O)Nc3c(C(=O)N[C@@H]4CCCNC4)sc4nccc2c34)cc1 [Example 952, (R)-4-Oxo-N-(piperidin-3-yl)-5-(p-tolyl)-4,5-dihydro-3H-1-thia-3,5,8-triazaacenaphthylene-2-carboxamide]	5.1
Cc1cc(Oc2ccccc2)ccc1N1C(=O)Nc2c(C(=O)N[C@@H]3CCCN(C(=O)CN4CCC4)C3)sc3nccc1c23 [Example 908, (R)—N-(1-(2-(Azetidin-1-yl)acetyl)piperidin-3-yl)-5-(2-methyl-4-phenoxyphenyl)-4-oxo-4,5-dihydro-3H-1-thia-3,5,8-triazaacenaphthylene-2-carboxamide]	6.7
Cc1cc(N2C(=O)Nc3c(C(=O)N[C@@H]4CCCNC4)sc4nccc2c34)ccc1OC(C)C [Example 955, (R)-5-(4-Isopropoxy-3-methylphenyl)-4-oxo-N-(piperidin-3-yl)-4,5-dihydro-3H-1-thia-3,5,8-triazaacenaphthylene-2-carboxamide]	<5
